Test results reported in patent US20160333071A1 (THE TRUSTEES OF COLUMBIA UNIVERSITY IN THE CITY OF NEW YORK, priority 2014, published 2016).

System: endocardial tissue slabs (incorporating the construct injection site)
Parameters: species or system dog

In the case of NC1=N[C@H](O)[C@H]2[C@H]3O[C@]4(O)O[C@@H]([C@@H](O)[C@@]2(N1)[C@@H]4O)[C@]3(O)CO [Tetrodotoxin, tetrodotoxin], the “effect on rate of isoproterenol-enhanced rhythms” value is reported as “reductions in rate”.
In the case of COc1cc2c(cc1OC)CC(=O)N(CCCN(C)C[C@H]1Cc3cc(OC)c(OC)cc31)CC2 [ivabradine], the “effect on rate of isoproterenol-enhanced rhythms” value is reported as “reductions in rate”.
